The source of these data is patent publication US20210114983A1, “Cathepsin C inhibitors” (National Institute of Biological Sciences, Beijing, priority 2018, published 2021).

Chain of rhCatC (Cathepsin C) (P53634 25-134 limits assumed): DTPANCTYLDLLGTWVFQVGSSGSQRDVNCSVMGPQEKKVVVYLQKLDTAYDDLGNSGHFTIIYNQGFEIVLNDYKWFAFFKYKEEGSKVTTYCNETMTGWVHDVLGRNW
Chain of rhCatC (Cathepsin C) (P53634 231-394 limits assumed): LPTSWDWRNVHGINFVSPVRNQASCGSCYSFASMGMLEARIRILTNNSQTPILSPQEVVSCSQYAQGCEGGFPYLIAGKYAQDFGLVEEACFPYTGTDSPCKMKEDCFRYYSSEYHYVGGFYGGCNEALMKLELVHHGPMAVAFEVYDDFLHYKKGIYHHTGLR
Chain of rhCatC (Cathepsin C) (P53634 395-463 limits assumed): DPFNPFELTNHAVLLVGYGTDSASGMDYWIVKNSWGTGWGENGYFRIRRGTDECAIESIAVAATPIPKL

The target of this assay is rhCatC (Cathepsin C) (Homo sapiens, UniProt P53634). Description: In Vitro CatC Enzyme Assay. It counts as biochemical. To be noted: read-out: Cat C Enzy (Cathepsin C inhibitory activity, IC50). The procedure:
In Vitro CatC Enzyme Assay
The CatC enzyme assay was performed in black 384-well plate. Firstly, rhCatC (440 nM) was activated by rhCatL (300 nM) in activation buffer (25 mM MES, 5 mM DTT, pH 6.0) at room temperature for 2 h and then activated rhCatC was diluted to 4.4 nM in assay buffer (25 mM MES, 50 mM NaCl, 5 mM DTT, 0.01% (v/v) Triton X100, pH 6.0), 14 μL activated rhCatC and 1 μL compound in 10% DMSO or 10% DMSO were incubated at room temperature for 3 h, and 5 μL substrate (Gly-Phe-AFC) was added to final concentration of 100 μM. After 60 min reaction, the product of the reaction was measured in the Enspire plate reader using Ex λ400 nm and Em λ505 nm for AFC. A standard irreversible CatC inhibitor 10 by AstraZeneca (J. Med. Chem. 2014, 57, 2357-2367) was used as an inhibitor control in the assay.
By IC50 is commonly meant the concentration needed to halve the response being measured. With `C=CC(=O)Nc1cccc(Oc2nc(Nc3ccc(N4CCN(C)CC4)c(OC)c3)ccc2Cl)c1` [Compound 11, N-(3-((3-chloro-6-((3-methoxy-4-(4-methylpiperazin-1-yl)phenyl)amino)pyridin-2-yl)oxy)phenyl)acrylamide], the 50% inhibitory concentration (IC50) lay within 300 to 30000 nM.

Regarding `CC#CC(=O)Nc1cc(Oc2nc(Nc3ccc(N4CCN(C)CC4)cc3OC)ccc2N2CCCCC2)ccc1C` [Compound 47, N-(5-((6-((2-methoxy-4-(4-methylpiperazin-1-yl)phenyl)amino)-3-(piperidin-1-yl)pyridin-2-yl)oxy)-2-methylphenyl)but-2-ynamide], the IC50 lay within 300 to 30000 nM. To `C=CC(=O)Nc1cccc(Oc2cccc(Nc3ccc(N4CCN(C)CC4)cc3)n2)c1` [Compound 5, N-(3-((6-((4-(4-methylpiperazin-1-yl)phenyl)amino)pyridin-2-yl)oxy)phenyl)acrylamide] belongs 300 to 30000 nM; to `C=CC(=O)Nc1cc(Oc2cccc(Nc3ccc(N4CCN(C)CC4)cc3OC)n2)ccc1OC` [Compound 40, N-(2-methoxy-5-((6-((2-methoxy-4-(4-methylpiperazin-1-yl)phenyl)amino)pyridin-2-yl)oxy)phenyl)acrylamide], 300 to 30000 nM; to `C=CC(=O)Nc1cccc(N(Cc2ccccc2)c2cccc(Nc3ccc(N4CCN(C)CC4)cc3OC)n2)c1` [Compound 25, N-(3-(benzyl(6-((2-methoxy-4-(4-methylpiperazin-1-yl)phenyl)amino)pyridin-2-yl)amino)phenyl)acrylamide], 300 to 30000 nM. Then `C=CC(=O)Nc1cc(Oc2nc(Nc3ccc(N4CCN(C)CC4)cc3OC)ccc2N2CCC(O)C2)ccc1C` (centres unmarked) [Compound 31, N-(5-((3-(3-hydroxypyrrolidin-1-yl)-6-((2-methoxy-4-(4-methylpiperazin-1-yl)phenyl)amino)pyridin-2-yl)oxy)-2-methylphenyl)acrylamide], with 3 to 300 nM; and `C=CC(=O)Nc1cc(Oc2nc(Nc3ccc(N4CCN(C)CC4)cc3OC)ccc2N2CCCC(O)C2)ccc1C` (centres unmarked) [Compound 32, N-(5-((3-(3-hydroxypiperidin-1-yl)-6-((2-methoxy-4-(4-methylpiperazin-1-yl)phenyl)amino)pyridin-2-yl)oxy)-2-methylphenyl)acrylamide], with 3 to 300 nM. With `C=CC(=O)Nc1cccc(Oc2nc(Nc3ccc(N4CCN(C)CC4)cc3OC)ccc2C#N)c1` [Compound 17, N-(3-((3-cyano-6-((2-methoxy-4-(4-methylpiperazin-1-yl)phenyl)amino)pyridin-2-yl)oxy)phenyl)acrylamide], the IC50 lay in the range of 300 to 30000 nM. Then `C=CC(=O)Nc1cc(Oc2cccc(Nc3ccc(N4CCN(C)CC4)cc3OC)n2)ccc1C` [Compound 43, N-(5-((6-((2-methoxy-4-(4-methylpiperazin-1-yl)phenyl)amino)pyridin-2-yl)oxy)-2-methylphenyl)acrylamide], with 3 to 300 nM; and `C=CC(=O)Nc1cccc(Oc2nc(Nc3ccc(N4CCN(C)CC4)cc3OC)ccc2N(C)C)c1` [Compound 22, N-(3-((3-(dimethylamino)-6-((2-methoxy-4-(4-methylpiperazin-1-yl)phenyl)amino)pyridin-2-yl)ox)phenyl)acrylamide], with 300 to 30000 nM; and `C=CC(=O)Nc1cc(Oc2cccc(Nc3ccc(N4CCN(C)CC4)cc3OC)n2)ccc1C(F)(F)F` [Compound 51, N-(5-((6-((2-methoxy-4-(4-methylpiperazin-1-yl)phenyl)amino)pyridin-2-yl)oxy)-2-(trifluoromethyl)phenyl)acrylamide], with 3 to 300 nM. Then `C=CC(=O)Nc1cccc(Oc2nc(Nc3ccc(N4CCNCC4)cc3)ccc2Cl)c1` [Compound 7, N-(3-((3-chloro-6-((4-(piperazin-1-yl)phenyl)amino)pyridin-2-yl)oxy)phenyl)acrylamide], with 300 to 30000 nM; and `C=CC(=O)Nc1cc(Oc2nc(Nc3ccc(N4CCN(C)CC4)cc3)ccc2N2CCCCC2)ccc1C` [Compound 38, N-(2-methyl-5-((6-((4-(4-methylpiperazin-1-yl)phenyl)amino)-3-(piperidin-1-yl)pyridin-2-yl)oxy)phenyl)acrylamide], with 3 to 300 nM; and `C=CC(=O)Nc1cccc(Oc2nc(Nc3ccc(N4CCN(C)CC4)cc3OC)ccc2N2CCCCC2)c1` [Compound 52, N-(3-((6-((2-methoxy-4-(4-methylpiperazin-1-yl)phenyl)amino)-3-(piperidin-1-yl)pyridin-2-yl)oxy)phenyl)acrylamide], with 3 to 300 nM.

On to `C=CC(=O)Nc1cc(Oc2nc(Nc3ccc(N4CCNCC4)cc3OC)ccc2N2CCCCC2)ccc1C` [Compound 54], for which the IC50 was in the range of 3 to 300 nM. Then `C=CC(=O)Nc1cccc(Oc2nc(Nc3cccc(CN)c3)ccc2Cl)c1` [Compound 6, N-(3-((6-((3-(aminomethyl)phenyl)amino)-3-chloropyridin-2-yl)oxy)phenyl)acrylamide], with 300 to 30000 nM. Then `C=CC(=O)Nc1cccc(Oc2nc(Nc3ccc(N4CCC[C@@H](N)C4)cc3OC)ccc2Cl)c1` [Compound 9, (R)-N-(3-((6-((4-(3-aminopiperidin-1-yl)-2-methoxyphenyl)amino)-3-chloropyridin-2-yl)oxy)phenyl)acrylamide], with 300 to 30000 nM; and `C=CC(=O)Nc1cccc(Oc2nc(Nc3ccc(N4CCN(C)CC4)cc3OC)ccc2N2CCCCCC2)c1` [Compound 53, N-(3-((3-(azepan-1-yl)-6-((2-methoxy-4-(4-methylpiperazin-1-yl)phenyl)amino)pyridin-2-yl)oxy)phenyl)acrylamide], with 3 to 300 nM.

Take `C=CC(=O)Nc1cc(Oc2nc(Nc3ccc(N4CCN(C)CC4)cc3OC)ccc2Cl)ccc1C` [Compound 18, N-(5-((3-chloro-6-((2-methoxy-4-(4-methylpiperazin-1-yl)phenyl)amino)pyridin-2-yl)oxy)-2-methylphenyl)acrylamide]: the IC50 is 300 to 30000 nM. To `C#CCN1CCN(c2ccc(Nc3ccc(N4CCCCC4)c(Oc4ccc(C)c(NC(=O)C=C)c4)n3)c(OC)c2)CC1` [Compound 56] belongs 3 to 300 nM; to `C=CC(=O)Nc1cc(Oc2nc(Nc3ccc(N4CCN(C)CC4)cc3OC)ccc2Cl)ccc1C(F)(F)F` [Compound 50, N-(5-((3-chloro-6-((2-methoxy-4-(4-methylpiperazin-1-yl)phenyl)amino)pyridin-2-yl)oxy)-2-(trifluoromethyl)phenyl)acrylamide], 3 to 300 nM. Then `COc1cc(N2CCN(C)CC2)ccc1Nc1ccc(N2CCCCC2)c(Oc2ccc(C)c(NC(=O)C=C(C)C)c2)n1` [Compound 46, N-(5-((6-((2-methoxy-4-(4-methylpiperazin-1-yl)phenyl)amino)-3-(piperidin-1-yl)pyridin-2-yl)oxy)-2-methylphenyl)-3-methylbut-2-enamide], with 300 to 30000 nM; and `C=CC(=O)Nc1cc(Oc2nc(Nc3ccc(N4CCN(C(C)=O)CC4)cc3OC)ccc2N2CCCCC2)ccc1C` [Compound 36, N-(5-((6-((4-(4-acetylpiperazin-1-yl)-2-methoxyphenyl)amino)-3-(piperidin-1-yl)pyridin-2-yl)oxy)-2-methylphenyl)acrylamide], with 3 to 300 nM.
